Reference: publication PMC8597786 (Antimicrobial Agents and Chemotherapy, 2021)
Values joined by “and” are separate entries in the source; they are usually repeats but may differ in a detail not shown here. Identical values can stand only once. Like-named read-outs stand apart in the source and are kept apart here.

Key:
[1] = target: T1, SARS-CoV-2 spike RBD/ACE2 (Severe acute respiratory syndrome coronavirus 2, UniProt P0DTC2); assay: biochemical; assay type: binding, SARS-CoV-2 (USA-WA1/2020)
T1 construct: a SARS-CoV-2 RBD protein derived from USA-WA1/2020 and containing a C-terminal His tag; a full-length ACE2 peptide with a C-terminal Fc tag; purchased Sino Biological

Vero-E6 cells = assay: Resazurin cell viability assay in uninfected cells; assay type: cell-based
Method: (§1) A total of 20,000 Vero-E6 cells were plated in 96-well plates and incubated overnight before addition of compounds at defined concentrations; 0.1% DMSO vehicle control was added to wells in the absence of test compounds. All experimental conditions were performed in duplicate. Cells were then incubated at 37°C and 5% CO2 for 4 days before addition of resazurin (Sigma-Aldrich) to a final concentration of 20 μg/ml. Cells were incubated for an additional 4 h before fluorescence intensity was measured using a ClarioStar plate reader (BMG Labtech). Background fluorescence was subtracted from wells containing resazurin and D10+ medium but no cells.

[2] = 100 mg/kg; cited from earlier work
SARS-CoV-2 M^pro = target: T2, SARS-CoV-2 M^pro (Severe acute respiratory syndrome coronavirus 2, UniProt P0DTD1); assay: M^pro enzymatic assay (FRET fluorogenic peptide substrate); assay type: biochemical
T2 construct: QHD43415.1; amino acids [aa]; 3264 to 3567; HIS-SUMO (N, cleaved yes); made in house; host or cells: E. coli BL21(DE3)

[3] = 200 mg/kg; cited from earlier work
[4] = system: VSVΔG-S-GFP pseudovirus containing SARS-CoV-2 spike from B.1.351; assay type: cell-based, SARS-CoV-2 B.1.351; details: for % GFP+ nuclei, Average: 50 μM; for Infected cells at 50 μM (%), VSVΔG-S-GFP pseudovirus B.1.351: 24 h
[5] = system: VSVΔG-S-GFP pseudovirus containing SARS-CoV-2 spike from B.1.1.7; assay type: cell-based, SARS-CoV-2 B.1.1.7; details: for % GFP+ nuclei, Average: 50 μM; for Infected cells at 50 μM (%), VSVΔG-S-GFP pseudovirus B.1.1.7: 24 h
[6] = 200 mg/kg; cited from earlier work; remark: listed apart in the source
PD-1/PD-L1 = target: T3, PD-1/PD-L1 (Homo sapiens, UniProt Q9NZQ7); assay: PD-1/PD-L1 AlphaScreen interaction assay; assay type: binding
T3 construct: purchased Sino Biological
Method: PD-1 binding to PD-L1 was also determined using AlphaScreen technology. […] Next, 5 μl of PD-L1-Fc/protein A acceptor beads was added first to the plate, followed by 100 nl of test compound prepared as described above, followed by 5 μl of PD-1-His/nickel chelate donor beads. For each experiment, all conditions were performed in duplicate. Following 2 h of incubation at room temperature, data were collected as described above and normalized to percentage inhibition, where 100% equaled the AlphaScreen signal in the absence of PD-1-His, and 0% equaled the AlphaScreen signal in the presence of both proteins and 0.1% DMSO alone.

[7] = Resazurin cell viability assay in uninfected cells; assay type: cell-based; details: African green monkey, uninfected Vero-E6 cells, resazurin, 4 days
Method: as §1

[8] = system: VSVΔG-S-GFP pseudovirus containing SARS-CoV-2 spike (USA-WA1/2020)
[9] = system: SARS-CoV-2 (BetaCov isolate); details: supernatant viral RNA by quantitative PCR after 48 h, read-out: EC50 in SARS-CoV-2-infected Vero-E6 cells; cited from earlier work
RBD with ACE2 = details: read-out: IC50, inhibition of binding of RBD with ACE2; cited from earlier work
SARS-CoV-2 = details: read-out: EC50, SARS-CoV-2 replication; cited from earlier work
[10] = read-out: IC50 for Spike/ACE2 AlphaScreen

T3 sequence (Q9NZQ7 19-239 limits assumed): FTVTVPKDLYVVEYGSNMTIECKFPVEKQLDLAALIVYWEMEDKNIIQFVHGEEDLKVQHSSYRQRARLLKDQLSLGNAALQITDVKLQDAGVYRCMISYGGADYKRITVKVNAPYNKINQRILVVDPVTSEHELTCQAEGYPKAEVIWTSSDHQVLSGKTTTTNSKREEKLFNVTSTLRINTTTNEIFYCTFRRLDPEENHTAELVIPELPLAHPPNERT

Compound	IC50 [1]	Selectivity index [1]	IC50 (SARS-CoV-2 M^pro)	% GFP+ nuclei, Average [4]	Infected cells at 50 μM (%), VSVΔG-S-GFP pseudovirus B.1.351 [4]	% GFP+ nuclei, Average [5]	Infected cells at 50 μM (%), VSVΔG-S-GFP pseudovirus B.1.1.7 [5]	IC50 (PD-1/PD-L1)	CC50 at 4 days [7]	% GFP+ nuclei, Average ([8]; 50 μM)	Infected cells at 50 μM (%), VSVΔG-S-GFP pseudovirus WA1/2020 ([8]; 24 h)	also measured
Cc1c(COc2cc(OCc3cccc(C#N)c3)c(CN3C[C@H](O)C[C@@H]3C(=O)O)cc2Cl)cccc1-c1ccc2c(c1)OCCO2 [BMS-1166, reference compound]	–	–	–	–	–	–	–	–	–	–	–	IC50 [1, 10]: > 100 µM
CC(C)C[C@H](NC(=O)OCc1ccccc1)C(=O)N[C@@H](CC1CCNC1=O)C(O)S(=O)(=O)O (stereo partly shown) [GC-376, reference compound]	–	–	–	–	–	–	–	–	–	–	–	CC50 (Vero-E6 cells; resazurin, 4 days): > 10 µM
Oc1ccc([C@@H]2c3c(O)cc(O)cc3[C@@H]3c4c(cc(O)cc4[C@H]2[C@@H]2c4cc(O)cc5c4[C@@H](c4cc(O)cc(O)c4[C@H]2c2ccc(O)cc2)[C@H](c2ccc(O)cc2)O5)O[C@H]3c2ccc(O)cc2)cc1 [Hopeaphenol, (–)-hopeaphenol]	0.11 µM	257.3	42.5 µM	0.93%	20.4 ± 2.4% and 20.4%	1.83%	34.1 ± 13.6% and 34.1%	28.3 µM	> 100 µM	0.69%	28.2 ± 1.2% and 28.2%	Effect against LPS-induced liver injury in mice [2]: hepatoprotective effects; Plasma triglyceride elevation in olive oil-treated mice [3]: inhibit plasma triglyceride elevation; Plasma glucose in sucrose-loaded mice [6]: reduce plasma glucose
CCC(CC)COC(=O)[C@H](C)N[P@](=O)(OC[C@H]1O[C@@](C#N)(c2ccc3c(N)ncnn23)[C@H](O)[C@@H]1O)Oc1ccccc1 [Remdesivir, remdesivir, reference compound]	–	–	–	–	–	–	–	–	> 10 µM	–	–	–
Oc1ccc(/C=C/c2cc(O)cc(O)c2)cc1 [Resveratrol, resveratrol, reference compound]	> 100 µM	–	–	–	–	–	–	–	~100 µM	2.36%	96.3 ± 14.7% and 96.3%	EC50 [9]: 10.7 µM; Total cell nuclei, % of nuclei observed in untreated, infected cells ([8]; 50 μM, 24 h): 60.3 ± 7.0%
OC[C@H]1O[C@@H](Oc2cc3c4c(c2)[C@@H]([C@@H]2c5cc(O)cc6c5[C@@H](c5cc(O)cc(O)c5[C@H]2c2ccc(O)cc2)[C@H](c2ccc(O)cc2)O6)[C@H](c2ccc(O)cc2)c2c(O)cc(O)cc2[C@H]4[C@H](c2ccc(O)cc2)O3)[C@H](O)[C@@H](O)[C@@H]1O [Vatalbinoside A, vatalbinoside A]	0.24 µM	92.9	68.7 µM	1.87%	41.1 ± 2.6% and 41.1%	2.35%	43.8 ± 3.4% and 43.8%	22.3 µM	> 100 µM	0.99%	40.4 ± 16.7% and 40.4%	–
Oc1ccc([C@@H]2c3c(O)cc(O)cc3[C@@H]3c4c(cc(O)c5c4[C@@H]2[C@H](c2ccc(O)cc2)[C@H]5c2cc(O)cc4c2[C@@H](c2cc(O)cc(O)c2)[C@H](c2ccc(O)cc2)O4)O[C@H]3c2ccc(O)cc2)cc1 [Vaticanol B, vaticanol B]	0.067 µM	247.8	47.6 µM	3.29%	72.3 ± 7.3% and 72.3%	2.02%	37.7 ± 4.1% and 37.7%	16.6 µM	> 100 µM	2.05%	83.7 ± 4.9% and 83.7%	–
Oc1ccc([C@H]2Oc3cc(O)cc([C@@H]4[C@H](c5cc(O)cc(O)c5)[C@@H](c5ccc(O)cc5)O[C@H]4c4ccc(O)cc4)c3[C@@H]2c2cc(O)c3c(c2)[C@@H](c2cc(O)cc(O)c2)[C@H](c2ccc(O)cc2)O3)cc1 [kobophenol A]	–	–	–	–	–	–	–	–	–	–	–	IC50 (RBD with ACE2): 1.8 µM; EC50 (SARS-CoV-2): 71.6 µM
REGN10933	–	–	–	–	–	–	–	–	–	–	–	IC50 [1, 10]: 0.00018 µM; Cytotoxicity by resazurin staining (Vero-E6 cells; 4 days of treatment): no evidence of cytotoxicity
